From ChEMBL document CHEMBL1134378 (J Med Chem, 2001)

Tests used:
[1] = Inhibitory activity against type A neuraminidase (N2); design: species or system unidentified influenza virus
[2] = Inhibitory activity against type A neuraminidase (N9); design: species or system unidentified influenza virus

For `C=C(C)NC(C(CC)CC)[C@@H]1[C@H](O)[C@@H](C(=O)O)C[C@H]1N=C(N)N` (some centres not stated), the “Log IC50” value [1] was -10 and the “Log IC50” value [2] was -10.
